Positions count from the first letter of the chain named. Several values for one entry are separate records, joined by “and”; a condition that tells them apart may be missing. Equal values may be shown once. One block for each compound: values may come before it.
Tests used:
[1] = target: T1, N370S glucocerebrosidase (GCase) (Homo sapiens, UniProt P04062, N409S); assay: N370S spleen; type: biochemical; settings: for fold loss of activity vs 8a: compared with 8a; for IC50: N370S tissue homogenate, 4-methylumbelliferone β-D glucopyranoside substrate (blue substrate)
T1 sequence (P04062 40-536 N409S): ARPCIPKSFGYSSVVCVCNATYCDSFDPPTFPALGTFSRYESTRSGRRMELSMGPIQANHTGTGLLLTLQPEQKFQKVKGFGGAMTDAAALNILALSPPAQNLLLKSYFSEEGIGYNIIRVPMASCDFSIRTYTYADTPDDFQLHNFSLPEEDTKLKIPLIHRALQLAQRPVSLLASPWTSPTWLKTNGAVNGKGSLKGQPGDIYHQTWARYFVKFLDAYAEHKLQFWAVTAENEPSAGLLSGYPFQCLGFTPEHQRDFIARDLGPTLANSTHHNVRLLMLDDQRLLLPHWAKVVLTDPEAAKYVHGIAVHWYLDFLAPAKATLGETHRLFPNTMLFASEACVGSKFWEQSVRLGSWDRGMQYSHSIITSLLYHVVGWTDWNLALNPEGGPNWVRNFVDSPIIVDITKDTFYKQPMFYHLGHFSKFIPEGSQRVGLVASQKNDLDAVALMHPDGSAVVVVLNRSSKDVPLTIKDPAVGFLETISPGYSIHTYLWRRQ

[2] = target: human SST4 receptor (Homo sapiens, UniProt P31391); assay: human SST4 receptor binding affinity assay; settings: compared with 27
human SST4 receptor, sequence (P31391 whole entry): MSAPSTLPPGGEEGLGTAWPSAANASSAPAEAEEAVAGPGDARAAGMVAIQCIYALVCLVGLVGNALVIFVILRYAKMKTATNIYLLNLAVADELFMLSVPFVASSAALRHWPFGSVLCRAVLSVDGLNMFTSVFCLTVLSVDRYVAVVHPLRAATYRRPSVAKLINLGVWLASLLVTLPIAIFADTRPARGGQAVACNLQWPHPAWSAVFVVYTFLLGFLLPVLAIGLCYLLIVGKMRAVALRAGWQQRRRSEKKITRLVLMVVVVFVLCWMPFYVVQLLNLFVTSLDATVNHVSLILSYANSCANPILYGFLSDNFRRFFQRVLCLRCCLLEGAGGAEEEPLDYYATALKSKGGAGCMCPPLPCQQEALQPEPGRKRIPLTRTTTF

[3] = tested on: fibroblasts from patients with genotype N370S/N370S; assay: Translocation of N370S GCase to lysosomes, confocal microscopy; type: cell-based, human; settings: 1 μM compound, five days, vs vehicle
[4] = target: T2, GCase (Homo sapiens, UniProt P04062); assay: Thermofunctional stabilization of GCase; type: biochemical; settings: enzyme incubated at 51 °C for 60 minutes
T2 sequence (P04062 40-536): T1 sequence (P04062 40-536 N409S) with S370N

[5] = Mouse liver microsome stability; type: in vitro ADME; settings: 60 minutes, in the presence of NADPH
[6] = Pharmacokinetics after intraperitoneal administration to mice; type: in vivo, male C57BL/6 mice
[7] = target: T2, GCase; assay: Isolated enzyme GCase assay; type: biochemical
[8] = target: T2, GCase; assay: GCase inhibition with alternative substrates; type: biochemical

SMILES: S=C(NCCCc1cnc[nH]1)NCCCN(Cc1ccc(Cl)cc1)c1ccc(Br)cc1 [compound 24]
fold more potent than compound 27 (GCase) ([1]; compared with 27): about 10 fold
fold less potent than 27 (SST4 binding) [2]: about 5 fold
co-localization of N370S GCase with LAMP-1 (lysosomes) [3]: Increased co-localization

SMILES: OC[C@H]1CNC[C@@H](O)[C@@H]1O [Isofagomine, reference compound]
retention of GCase function after heating [4]: retain considerable function

SMILES: CN(CCCN(Cc1ccc(Cl)cc1)c1ccc(Br)cn1)C(=S)NCCCc1cnc[nH]1 [compound 26]
fold loss of activity vs 8a [1]: 2 fold

SMILES: CN(CCCc1cnc[nH]1)C(=S)NCCCN(Cc1ccc(Cl)cc1)c1ccc(Br)cn1 [compound 27]
fold loss of activity vs 8a [1]: 10 fold

SMILES: CCCCNC(=S)NCCCN(Cc1ccc(Cl)c(Cl)c1)c1ccc(Br)cn1 [compound 25]
IC50 [1]: inactive

Continued, in another order:

retention of GCase function after heating [4]: retain considerable function
co-localization of N370S GCase with LAMP-1 (lysosomes) [3]: Increased co-localization
parent molecule remaining [5]: 58%
Plasma concentration, Mean ([6]; 30 mg/kg IP, 0 hr): BQL
Plasma concentration, individual ([6]; 30 mg/kg IP, 0 hr): BQL
Plasma concentration, individual ([6]; 30 mg/kg IP, 0.083 hr, listed as ML156 (8i)): 1820 ng/mL and 1410 ng/mL
Plasma concentration, individual ([6]; 30 mg/kg IP, 0.25 hr, listed as ML156 (8i)): 3010 ng/mL and 1640 ng/mL
Plasma concentration, individual ([6]; 30 mg/kg IP, 0.5 hr, listed as ML156 (8i)): 2270 ng/mL and 3270 ng/mL
Plasma concentration, individual ([6]; 30 mg/kg IP, 1 hr, listed as ML156 (8i)): 3770 ng/mL and 3150 ng/mL
Plasma concentration, individual ([6]; 30 mg/kg IP, 2 hr, listed as ML156 (8i)): 3840 ng/mL
Plasma concentration, individual ([6]; 30 mg/kg IP, 4 hr, listed as ML156 (8i)): 2030 ng/mL and 2570 ng/mL
Plasma concentration, individual ([6]; 30 mg/kg IP, 8 hr, listed as ML156 (8i)): 1190 ng/mL and 357 ng/mL and 714 ng/mL
Plasma concentration, individual ([6]; 30 mg/kg IP, 12 hr, listed as ML156 (8i)): 127 ng/mL and 80.7 ng/mL
Plasma concentration, individual ([6]; 30 mg/kg IP, 24 hr, listed as ML156 (8i)): 12.6 ng/mL and 9.98 ng/mL
inhibitory activity in isolated enzyme assays [7]: displayed inhibitory activity
inhibition of hydrolysis of resorufin-β-glucopyranoside (red substrate) [8]: effectively inhibited
SMILES: S=C(NCCCc1c[nH]cn1)NCCCN(Cc1ccc(Cl)c(Cl)c1)c1ccc(Br)cn1 [8i]
brain exposure ([6]; brain, additional pharmacokinetic studies): reasonable levels of the compound also reached the brain

IC50 [1]: inactive
SMILES: CC(=O)NCCCNC(=S)NCCCN(Cc1ccc(Cl)cc1)c1ccc(Br)cn1 [13b]

Reference: publication PMC3351140 (MedChemComm, 2011)
